Literature values, collected in patent publication US20210205361A1, “COMPOSITIONS AND METHODS FOR CANCER IMMUNOTHERAPY” (priority 2016, published 2021).

Tests used:
[1] = tested on: diffuse large B-cell lymphoma (DLBCL)
recurrent multifocal GBM = conditions: two pediatric patients refractory to standard therapies
[2] = tested on: advanced, treatment-refractory malignancies; conditions: subjects with non-small cell lung cancer (NSCLC)

Question: For “CT-011: humanized IgG1 monoclonal antibody against PD-1”, which “subjects progression-free at the end of the follow-up period” value ([1]; DLBCL subjects after autologous stem cell transplantation, control group 47%) is on record?
Answer: The value was 70%.

Question: What about the subjects alive ([1]; DLBCL subjects after autologous stem cell transplantation, control group 62%) of the same substance?
Answer: Its subjects alive is 82%.

Question: And the “activity of natural killer cells” value ([1]; finding of the phase II trial)?
Answer: Its value is “augments”.

Question: With “nivolumab: immune checkpoint inhibitor, anti-PD1 antibody” as the substance, how does the response (recurrent multifocal GBM) read?
Answer: Its response is “remarkable and durable responses”.

Question: For “BMS-936558: fully human IgG4 monoclonal antibody targeting PD-1”, which clinical activity [2] is on record?
Answer: Its clinical activity is “substantial clinical activity”.
